pEC50: −log10 of the molar value.
Biological target: T1, Tsr (Escherichia coli, UniProt P02942)
T1 construct: mixed adaptational modification states, CheR and CheB present; read-out by plasmid-borne CheY-YFP/CheZ-CFP
Assay: in vivo FRET kinase assay (CheY-YFP/CheZ-CFP), inhibition of receptor-coupled CheA activity, multi-site Hill fit
Assay type: cell-based
Settings: intact WM4196 minicells, motility buffer pH 7.0, adaptation enzymes CheR and CheB present; attractant at the periplasmic domain; read-out: K1/2

T1 sequence (P02942 whole entry): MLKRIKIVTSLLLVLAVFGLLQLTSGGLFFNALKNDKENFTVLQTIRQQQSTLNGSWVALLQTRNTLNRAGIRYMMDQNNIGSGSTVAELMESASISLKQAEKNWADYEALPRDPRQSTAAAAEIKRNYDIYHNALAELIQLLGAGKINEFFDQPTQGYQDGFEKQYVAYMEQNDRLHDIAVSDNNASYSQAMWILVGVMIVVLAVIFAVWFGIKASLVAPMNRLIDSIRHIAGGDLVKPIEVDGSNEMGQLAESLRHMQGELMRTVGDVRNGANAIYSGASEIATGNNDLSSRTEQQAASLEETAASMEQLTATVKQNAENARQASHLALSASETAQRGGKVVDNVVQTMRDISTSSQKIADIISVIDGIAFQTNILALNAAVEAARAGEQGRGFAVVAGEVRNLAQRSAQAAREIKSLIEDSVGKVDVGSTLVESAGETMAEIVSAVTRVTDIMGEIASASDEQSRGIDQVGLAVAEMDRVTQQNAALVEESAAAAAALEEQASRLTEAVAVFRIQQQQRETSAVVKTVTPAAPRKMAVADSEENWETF

Compound N[C@@H](CO)C(=O)O [serine] has a pEC50 of 6.40.

From publication PMC7005262, “Complete structure of the chemosensory array core signalling unit in an E. coli minicell strain” (Nature Communications, 2020)
